Results reported in patent US10087191B2, “Piperidine derivative and preparation method and pharmaceutical use thereof” (Jiangsu Hengrui Medicine Co., Ltd., priority 2015, dated 2018).

How the values were obtained:
[1] = target: estrogen receptor (ER) (Homo sapiens (Human), UniProt P03372); experiment: Inhibition of the binding of estrogen (E) to estrogen receptor (ER), MCF-7/ERE-luciferase reporter cells; type: cell-based; conditions: MCF-7/ERE-luciferase cells, 0.1 nM estradiol, 24 hours; read-out: IC50 value of inhibition effect on the binding of E to ER
estrogen receptor (ER), sequence (P03372 whole entry): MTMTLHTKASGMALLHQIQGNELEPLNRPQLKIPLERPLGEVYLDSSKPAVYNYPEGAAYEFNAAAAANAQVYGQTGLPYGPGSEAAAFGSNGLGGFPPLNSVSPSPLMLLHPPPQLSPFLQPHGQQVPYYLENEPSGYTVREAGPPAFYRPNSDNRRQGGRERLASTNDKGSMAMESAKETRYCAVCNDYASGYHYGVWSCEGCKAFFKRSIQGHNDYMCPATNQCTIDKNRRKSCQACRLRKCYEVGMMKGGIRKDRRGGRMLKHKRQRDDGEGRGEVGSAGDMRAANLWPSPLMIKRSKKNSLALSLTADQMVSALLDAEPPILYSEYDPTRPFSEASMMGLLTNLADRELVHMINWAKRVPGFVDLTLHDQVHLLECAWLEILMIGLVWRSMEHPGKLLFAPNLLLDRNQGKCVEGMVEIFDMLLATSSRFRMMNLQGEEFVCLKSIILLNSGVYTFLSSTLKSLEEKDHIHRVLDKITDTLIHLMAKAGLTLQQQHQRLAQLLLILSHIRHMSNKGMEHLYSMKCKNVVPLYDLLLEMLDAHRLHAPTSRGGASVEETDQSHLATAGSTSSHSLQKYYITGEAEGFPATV
Experimental: The inhibition effect of the compounds on the binding of E to ER in vitro was tested by the following method.
The object of this experiment was to determine the inhibition effect of the compounds on the binding of E to ER, and the in vitro activity of the compounds was evaluated according to the IC50 value.
MCF-7/ERE-luciferase cells were inoculated into the MEM medium (hyclone, SH30024.01B) containing 10% charcoal stripped FBS (Moregate, FBSF), 1% sodium pyruvate (Sigma, Cat. No. S8636), 1% nonessential amino acids (Sigma, Cat. No. M7145) and 500 μg/ml G418 in a 96-well plate with a density of 30,000 cells/well, and the cells were incubated under the conditions of 37° C. and 5% CO2. […] After incubation for 24 hours, the medium was removed, then 0.1 nM estradiol (Sigma, Cat. No. E2758) and 10 μl of the drug diluted with the medium were added to each well, and the control group was added with DMSO. The plate was gently shaken and incubated in a incubator at 37° C., 5% CO2. After 24 hours, the cell culture medium was discarded.
The inhibition effect of the compounds of the present invention on the binding of E to ER was tested by the experiment described above.

[2] = test system: MCF7 cells; experiment: Inhibition of the proliferation of MCF7 cells (Cell Titer-Glo); type: cell-based; conditions: Homo sapiens, MCF-7 cells, 72 hours, read-out: IC50 value of inhibition effect on the proliferation of MCF7 cells
In short: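 Viability by Cell Titer-Glo luminescence; IC50 from signal versus log concentration.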

[3] = target: ERα (Homo sapiens (Human), UniProt P03372); experiment: Degradation effect on ERα in MCF-7 cells (ERα Duoset ELISA); type: cell-based; conditions: MCF-7 cells; read-out: IC50 value of the degradation effect on ERα
ERα, sequence (P03372 whole entry): as above
Experimental: In order to determine the degradation effect on ER induced by the compounds of the present invention, the following method was used to determine the degradation effect of the compounds of the present invention on ER.
MCF-7 cell line (TChu 74, Cell Bank of Chinese Academy of Sciences typical culture preservation Committee)
ERα Duoset Kit (#DYC5715E, R&D System)
MCF-7 cells were incubated in DMEM/F-12 medium containing 10% FBS.
On the first day of the experiment, MCF-7 cells were resuspended in DMEM/F-12 medium containing 10% FBS treated by activated carbon, then inoculated into a 48-well plate with a density of 50,000 cells/well and incubated for 22-24 hours.
On the second day of the experiment, the test compound was diluted with medium and added to a 48-well plate. The ERα-capture antibody was diluted to 1 μg/ml with PBS, and added to a 96-well plate at 100 μl/well. The plate was sealed and coated overnight at room temperature.
On the third day of the experiment, the coated 96-well plate was washed twice with PBS, added with a sealing solution (1% BSA in PBS) at 110 μl/well and sealed for 1 hour at room temperature. The 48-well plate was washed once with PBS, and the residual liquid was removed. Then, 60 μl of lysis (6 M urea, 1 mM EDTA, 0.5% Triton X-100, 1 mM PMSF, Protease Inhibitor cocktail) was added to each well. After lysis on ice for 15 minutes, the diluent (1 mM EDTA, 0.5% TritonX-100 dissolved in PBS) was added. The cell-diluted lysate was transferred to a 96-well plate at 100 μl/well, then the plate was incubated at room temperature for 2 hours. The diluted primary antibody was added after the plate was washed 4 times with a washing liquid (PBST). After incubation for 1 hour, the 96-well plate was washed 4 times, and the second antibody was added, then the plate was incubated for 30 minutes. After the plate was washed with a washing liquid, TMB chromogenic solution was added and incubated for 15 minutes. The reaction was stopped by the addition of 1 M H2SO4, then the light absorption at 450 nm was read.

[4] = Pharmacokinetics assay in BALB/C nude mice after intragastrical administration; type: in vivo; conditions: female, mouse, plasma, po, 3 mg/kg; for AUC: read-out: Area Under Curve AUC; for CL/F: read-out: Clearance CL/F (converted); for half-life: read-out: Half-Life t½ (converted); for MRT: read-out: Mean Residence Time MRT; for Cmax: read-out: Plasma Conc. Cmax
Experimental: BALB/C nude mice were used as test animals. The drug concentration in plasma at different time points was determined by LC/MS/MS after intragastrical administration of the compounds of Examples 10, 14, 20, 21, 57, 68, 71, 73, 74, 76 and 89 to BALB/C nude mice. The pharmacokinetic behavior of the compounds of the present invention was studied and evaluated in BALB/C nude mice.
Ninety-nine (99) female BALB/C nude mice were equally divided into 11 groups, which were purchased from SINO-BRITSH SIPPR/BK LAB. ANIMAL LTD., CO, with Certificate No.: SCXK (Shanghai) 2008-0016.
The appropriate amount of each test compound was weighed, and successively added with 9% PEG400+0.5% tween 80+0.5% PVP+90% aqueous solution of 0.5% CMC.
After an overnight fast, 99 female BALB/C nude mice were equally divided into 11 groups, and administered the test compounds intragastrically at an administration volume of 0.2 mL/10 g.
Blood (0.1 mL) was sampled (3 mice at each time point) at 0.5, 1.0, 2.0, 4.0, 6.0, 8.0, 11.0 and 24.0 hours after administration. The samples were stored in heparinized test tubes, and centrifuged for 10 minutes at 3,500 rpm to separate the blood plasma. The plasma samples were stored at −20° C. The plasma concentration of the test compounds in BALB/C nude mice after intragastrical administration was determined by LC/MS/MS.
Pharmacokinetic parameters of the compounds of Examples 10, 14, 20, 21, 57, 68, 71, 73, 74, 76 and 89 of the present invention are shown below.

Row | Structure (SMILES) | IC50 [1] [nM] | IC50 [2] [nM] | DC50 [3] [nM] | AUC [4] [ng·h/mL] | CL/F [4] [mL/min/kg] | half-life [4] [h] | MRT [4] [h] | Cmax [4] [ng/mL]
1 | CC1Cc2cc3c(cc2C(c2c(F)cc(/C=C/C(=O)O)cc2F)N1CC(C)(C)F)OCCO3 [Example 2, (E)-3-(3,5-difluoro-4-((6S,8R/6R,8S)-7-(2-fluoro-2-methylpropyl)-8-methyl-2,3,6,7,8,9-hexahydro-[1,4]dioxino[2,3-g]isoquinolin-6-yl)phenyl)acrylic acid] | 3.2 | 0.49 | 0.95 | – | – | – | – | –
2 | CC1Cc2cc(N3CCOCC3)ccc2C(c2c(F)cc(/C=C/C(=O)O)cc2F)N1CC(C)(C)F [Example 41, (E)-3-(3,5-difluoro-4-((1S,3R/1R,3S)-2-(2-fluoro-2-methylpropyl)-3-methyl-6-morpholino-1,2,3,4-tetrahydroisoquinolin-1-yl)phenyl)acrylic acid] | 1.94 | 1.9 | 0.36 | – | – | – | – | –
3 | CCn1cc(-c2ccc3c(c2F)CC(C)N(CC(C)(C)F)C3c2c(F)cc(/C=C/C(=O)O)cc2F)cn1 [Example 47, (E)-3-(4-((1S,3R/1R,3S)-6-(1-ethyl-1H-pyrazol-4-yl)-5-fluoro-2-(2-fluoro-2-methylpropyl)-3-methyl-1,2,3,4-tetrahydroisoquinolin-1-yl)-3,5-difluorophenyl)acrylic acid] | 1.5 | 0.71 | 3.54 | – | – | – | – | –
4 | CC1Cc2cc(-c3cnn(CCF)c3)ccc2C(c2c(F)cc(/C=C/C(=O)O)cc2F)N1CC(C)(C)F [Example 48, (E)-3-(3,5-difluoro-4-((1S,3R/1R,3S)-2-(2-fluoro-2-methylpropyl)-6-(1-(2-fluoroethyl)-1H-pyrazol-4-yl)-3-methyl-1,2,3,4-tetrahydroisoquinolin-1-yl)phenyl)acrylic acid] | 1.82 | 0.64 | 7.36 | – | – | – | – | –
5 | CC1Cc2cc(-c3ccccc3)ccc2C(c2c(F)cc(/C=C/C(=O)O)cc2F)N1CC(C)(C)F [Example 59, (E)-3-(3,5-difluoro-4-((1S,3R/1R,3S)-2-(2-fluoro-2-methylpropyl)-3-methyl-6-phenyl-1,2,3,4-tetrahydroisoquinolin-1-yl)phenyl)acrylic acid] | 5.56 | 1.29 | 6.25 | – | – | – | – | –
6 | CC1Cc2cc(-c3ccc(N4CCOCC4)cc3)ccc2C(c2c(F)cc(/C=C/C(=O)O)cc2F)N1CC(C)(C)F [Example 60, (E)-3-(3,5-difluoro-4-((1S,3R/1R,3S)-2-(2-fluoro-2-methylpropyl)-3-methyl-6-(4-morpholinophenyl)-1,2,3,4-tetrahydroisoquinolin-1-yl)phenyl)acrylic acid] | 7.12 | 2.1 | 7.35 | – | – | – | – | –
7 | CC1Cc2cc(-c3ccc4[nH]ncc4c3)ccc2C(c2c(F)cc(/C=C/C(=O)O)cc2F)N1CC(C)(C)F [Example 67, (E)-3-(3,5-difluoro-4-((1S,3R/1R,3S)-2-(2-fluoro-2-methylpropyl)-6-(1H-indazol-5-yl)-3-methyl-1,2,3,4-tetrahydroisoquinolin-1-yl)phenyl)acrylic acid] | 5.48 | 0.07 | 6.69 | – | – | – | – | –
8 | CC1Cc2c(oc3cccc(F)c23)C(c2c(F)cc(/C=C/C(=O)O)cc2F)N1CC(C)(C)F [Example 73, (E)-3-(3,5-difluoro-4-((1R,3R/1S,3S)-5-fluoro-2-(2-fluoro-2-methylpropyl)-3-methyl-1,2,3,4-tetrahydrobenzofuro[2,3-c]pyridin-1-yl)phenyl)acrylic acid] | – | 0.2 | 0.76 | 3950 | 210 | 1.47 | 2.45 | 1490
9 | CCn1cc(-c2ccc3oc4c(c3c2)CC(C)N(CC(C)(C)F)C4c2c(F)cc(/C=C/C(=O)O)cc2F)cn1 [Example 76, (E)-3-(4-((1R,3R/1S,3S)-6-(1-ethyl-1H-pyrazol-4-yl)-2-(2-fluoro-2-methylpropyl)-3-methyl-1,2,3,4-tetrahydrobenzofuro[2,3-c]pyridin-1-yl)-3,5-difluorophenyl)acrylic acid] | – | 0.59 | 2.43 | 26900 | 31 | 4.53 | 5.7 | 5460

Continued, in another order:

Row | IC50 [1] [nM] | IC50 [2] [nM] | DC50 [3] [nM] | Structure (SMILES) | AUC [4] [ng·h/mL] | CL/F [4] [mL/min/kg] | half-life [4] [h] | MRT [4] [h] | Cmax [4] [ng/mL]
10 | 1.45 | 0.01 | 0.41 | CNC(=O)COc1ccc2c(c1)CC(C)N(CC(C)(C)F)C2c1c(F)cc(/C=C/C(=O)O)cc1F [Example 32, (E)-3-(3,5-difluoro-4-((1S,3R/1R,3S)-2-(2-fluoro-2-methylpropyl)-3-methyl-6-(2-(methylamino)-2-oxoethoxy)-1,2,3,4-tetrahydroisoquinolin-1-yl)phenyl)acrylic acid] | – | – | – | – | –
11 | 0.87 | 0.08 | 2.12 | CC1Cc2c(ccc(-c3cnn(C)c3)c2F)C(c2c(F)cc(/C=C/C(=O)O)cc2F)N1CC(C)(C)F [Example 45, (E)-3-(3,5-difluoro-4-((1S,3R/1R,3S)-5-fluoro-2-(2-fluoro-2-methylpropyl)-3-methyl-6-(1-methyl-1H-pyrazol-4-yl)-1,2,3,4-tetrahydroisoquinolin-1-yl)phenyl)acrylic acid] | – | – | – | – | –
12 | 0.82 | 0.2 | 0.69 | CC1Cc2cc(-c3cnn(C)c3)ccc2C(c2c(F)cc(/C=C/C(=O)O)cc2F)N1CC(C)(C)F [Example 55, (E)-3-(3,5-difluoro-4-((1S,3R/1R,3S)-2-(2-fluoro-2-methylpropyl)-3-methyl-6-(1-methyl-1H-pyrazol-4-yl)-1,2,3,4-tetrahydroisoquinolin-1-yl)phenyl)acrylic acid] | – | – | – | – | –
13 | 0.84 | 1.35 | 1.79 | CC1Cc2cc(-c3cnn(C4CC4)c3)ccc2C(c2c(F)cc(/C=C/C(=O)O)cc2F)N1CC(C)(C)F [Example 58, (E)-3-(4-((1S,3R/1R,3S)-6-(1-cyclopropyl-1H-pyrazol-4-yl)-2-(2-fluoro-2-methylpropyl)-3-methyl-1,2,3,4-tetrahydroisoquinolin-1-yl)-3,5-difluorophenyl)acrylic acid] | – | – | – | – | –
14 | 1.07 | 0.22 | 4.72 | C[C@@H]1Cc2cc(-c3ccc4ncccc4c3)ccc2[C@@H](c2c(F)cc(/C=C/C(=O)O)cc2F)N1CC(C)(C)F [Example 64, (E)-3-(3,5-difluoro-4-((1S,3R)-2-(2-fluoro-2-methylpropyl)-3-methyl-6-(quinolin-6-yl)-1,2,3,4-tetrahydroisoquinolin-1-yl)phenyl)acrylic acid] | – | – | – | – | –
